For assay [1], the target named is Serine/threonine-protein kinase pim-1 (Homo sapiens, UniProt P11309). Briefly: Inhibition of human recombinant Pim1 using RSRHSSYPAGT as substrate and 30 uM ATP by radiometric assay.
The target in assay [2] is Serine/threonine-protein kinase pim-2 (Homo sapiens, UniProt Q9P1W9). The assay can be described thus: Inhibition of human recombinant Pim2 using RSRHSSYPAGT as substrate and 5 uM ATP by radiometric assay.
Assay [3] addresses Casein kinase II alpha/beta (Homo sapiens, UniProt P68400). Type of assay: protein-complex assay.

Serine/threonine-protein kinase pim-1, sequence (P11309 whole entry): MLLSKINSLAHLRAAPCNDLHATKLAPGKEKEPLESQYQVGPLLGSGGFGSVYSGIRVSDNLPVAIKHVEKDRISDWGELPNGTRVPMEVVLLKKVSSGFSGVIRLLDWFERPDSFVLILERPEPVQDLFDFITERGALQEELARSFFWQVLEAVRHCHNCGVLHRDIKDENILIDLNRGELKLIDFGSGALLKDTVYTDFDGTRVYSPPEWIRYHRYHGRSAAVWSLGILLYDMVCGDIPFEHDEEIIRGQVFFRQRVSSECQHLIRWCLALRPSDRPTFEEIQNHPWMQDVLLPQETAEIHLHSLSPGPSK
Serine/threonine-protein kinase pim-2, sequence (Q9P1W9 whole entry): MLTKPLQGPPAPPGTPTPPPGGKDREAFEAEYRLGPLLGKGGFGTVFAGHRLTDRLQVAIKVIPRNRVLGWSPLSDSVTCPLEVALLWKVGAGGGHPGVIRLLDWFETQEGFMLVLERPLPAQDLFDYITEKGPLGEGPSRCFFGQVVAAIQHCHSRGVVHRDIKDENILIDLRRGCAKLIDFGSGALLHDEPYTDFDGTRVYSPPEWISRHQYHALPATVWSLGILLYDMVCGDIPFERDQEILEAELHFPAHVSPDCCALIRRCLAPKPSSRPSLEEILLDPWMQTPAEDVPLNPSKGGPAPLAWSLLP
Casein kinase II alpha/beta, sequence (P67870 whole entry): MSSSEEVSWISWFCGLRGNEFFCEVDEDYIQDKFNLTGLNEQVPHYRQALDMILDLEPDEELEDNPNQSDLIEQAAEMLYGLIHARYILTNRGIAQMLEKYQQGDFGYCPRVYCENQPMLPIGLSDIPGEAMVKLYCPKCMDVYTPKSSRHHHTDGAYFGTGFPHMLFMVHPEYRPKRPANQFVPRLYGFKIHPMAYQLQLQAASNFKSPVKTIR
Casein kinase II alpha/beta, sequence (P68400 whole entry): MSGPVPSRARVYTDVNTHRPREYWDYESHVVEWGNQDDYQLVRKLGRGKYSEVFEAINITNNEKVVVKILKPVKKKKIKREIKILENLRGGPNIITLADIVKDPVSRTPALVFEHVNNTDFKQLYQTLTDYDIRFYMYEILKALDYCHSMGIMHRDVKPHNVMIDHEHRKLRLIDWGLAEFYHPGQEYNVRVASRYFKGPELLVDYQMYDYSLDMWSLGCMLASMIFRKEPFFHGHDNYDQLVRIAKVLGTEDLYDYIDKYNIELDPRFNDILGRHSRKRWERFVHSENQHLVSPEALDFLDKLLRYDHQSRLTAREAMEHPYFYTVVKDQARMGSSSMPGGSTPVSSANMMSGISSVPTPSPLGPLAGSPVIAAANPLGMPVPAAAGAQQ

A word on the IC50: it is the concentration that gives 50% inhibition. On to `c1ccc(Nc2nc3c(-c4nnc[nH]4)cccc3c3cscc23)cc1`, for which the IC50 in assay [1] came to 27 nM; in assay [2], 17 nM; in assay [3], 10 nM.

`c1ccc(Nc2nc3c(-c4nnc[nH]4)cccc3c3ccsc23)cc1`: the values for the IC50 in assay [1], in assay [2] and in assay [3] were 16 nM, 14 nM and 30 nM, respectively.

For `c1ccc(Nc2nc3c(-c4nnc[nH]4)cccc3n3cccc23)cc1`, the results for the IC50 in assay [1], in assay [2] and in assay [3] were 14 nM, 30 nM and 101 nM, respectively.

In the case of `c1cc(-c2nnc[nH]2)c2nc(NC3CC3)c3ccsc3c2c1`, the IC50 in assay [1] was 15 nM; in assay [2], 25 nM; in assay [3] it was 62 nM.

As for `c1cc(-c2nnc[nH]2)c2nc(N3CCOCC3)c3ccsc3c2c1`, the IC50 in assay [1] was 35 nM; in assay [2] it was 10 nM; in assay [3], 128 nM.

Turning to `c1ccc(CNc2nc3c(-c4nnc[nH]4)cccc3c3sccc23)cc1`, the results for the IC50 in assay [1], in assay [2] and in assay [3] were 4 nM, 52 nM and 48 nM, respectively.

On to `c1cncc(Nc2nc3c(-c4nnc[nH]4)cccc3c3sccc23)c1`, for which the values for the IC50 in assay [1], in assay [2] and in assay [3] were 17 nM, 22 nM and 76 nM, respectively.

Regarding `c1cc(-c2nnc[nH]2)c2nc(Nc3ccncc3)c3ccsc3c2c1`, the IC50 in assay [1] was 91 nM; in assay [2] it was 68 nM; in assay [3], 216 nM.

`Clc1cccc(Nc2nc3c(-c4nnc[nH]4)cccc3c3sccc23)c1`: the results for the IC50 in assay [1], in assay [2] and in assay [3] were 6 nM, 6 nM and 15 nM, respectively.

As to `Clc1ccc(Nc2nc3c(-c4nnc[nH]4)cccc3c3sccc23)cc1`, the IC50 in assay [1] was 14 nM; in assay [2] it was 86 nM; in assay [3] it was 33 nM.

With `Oc1ccc(Nc2nc3c(-c4nnc[nH]4)cccc3c3sccc23)c(Cl)c1`, the values for the IC50 in assay [1], in assay [2] and in assay [3] were 14 nM, 4 nM and 10 nM, respectively.

As to `Fc1ccc(Nc2nc3c(-c4nnc[nH]4)cccc3c3sccc23)c(Cl)c1`, the IC50 was 9 nM in assay [1], 9 nM in assay [2] and 52 nM in assay [3].

For the molecule `COc1cccc(Nc2nc3c(-c4nnc[nH]4)cccc3c3sccc23)c1Cl`, the IC50 in assay [1] is 5 nM; in assay [2], 21 nM; in assay [3], 17 nM.

Turning to `Fc1cc(F)cc(Nc2nc3c(-c4nnc[nH]4)cccc3c3sccc23)c1`, the IC50 worked out at 9 nM in assay [1], 24 nM in assay [2] and 151 nM in assay [3].

`FC(F)(F)Oc1ccc(Nc2nc3c(-c4nnc[nH]4)cccc3c3sccc23)c(Cl)c1`: the IC50 was found to be 64 nM in assay [1], 76 nM in assay [2] and 75 nM in assay [3].

With `Fc1ccc(Nc2nc3c(-c4nnc[nH]4)cccc3c3sccc23)cc1F`, the figures for the IC50 in assay [1], in assay [2] and in assay [3] were 9 nM, 15 nM and 77 nM, respectively.

Consider `COc1ccccc1Nc1nc2c(-c3nnc[nH]3)cccc2c2sccc12`, for which the IC50 in assay [1] came to 7 nM; in assay [2], 49 nM; in assay [3], 84 nM.

As to `COc1cccc(Nc2nc3c(-c4nnc[nH]4)cccc3c3sccc23)c1`, the IC50 in assay [1] turned out to be 11 nM; in assay [2], 28 nM; in assay [3] it was 11 nM.

For `CN(C)CCOc1ccc(Nc2nc3c(-c4nnc[nH]4)cccc3c3sccc23)cc1`, the IC50 in assay [1] amounted to 16 nM; in assay [2], 34 nM; in assay [3], 136 nM.

As for `FC(F)(F)c1cccc(Nc2nc3c(-c4nnc[nH]4)cccc3c3sccc23)c1`, the IC50 was found to be 16 nM in assay [1], 52 nM in assay [2] and 24 nM in assay [3].

Turning to `N#Cc1cccc(Nc2nc3c(-c4nnc[nH]4)cccc3c3sccc23)c1`, the figures for the IC50 in assay [1], in assay [2] and in assay [3] were 10 nM, 12 nM and 126 nM, respectively.

On to `NC(=O)c1ccc(Nc2nc3c(-c4nnc[nH]4)cccc3c3sccc23)cc1`, for which the IC50 in assay [1] was 17 nM; in assay [2], 17 nM; in assay [3] it was 139 nM.

The values are drawn from ChEMBL document CHEMBL2016532, “Novel potent dual inhibitors of CK2 and Pim kinases with antiproliferative activity against cancer cells” (Bioorg Med Chem Lett, 2012).
